Measurements reported in US5506239A, “Carbostyril derivative and platelets aggregation inhibitory agent” (Otsuka Pharmaceutical Co., Ltd., priority 1991, dated 1996).

Tests used:
[1] = test system: platelets; test: Platelets aggregation inhibitory activity (method of Born et al.), ADP-induced, human PRP (Pharmacological Test I); type: cell-based, man; settings: 7.5 μM ADP, 37° C., read-out: IC50 ADP (50% platelets aggregation inhibition)
Protocol: (§1) The platelets aggregation inhibitory activity of each test compound was measured by the method of Born et al. [J. Physiol., London, 162, 67 (1962)], using Platelets Aggregation Tracer manufactured by Nikoh Bioscience Co., Ltd.
(§2) 9 volumes of a blood collected from person was mixed with 1 volume of a 3.8% aqueous sodium citrate solution. Part of the mixture was subjected to centrifugation at 1,100 rpm for 10 minutes to obtain a platelet rich plasma (PRP). The remainder of the mixture was also subjected to centrifugation at 3,000 rpm for 10 minutes to obtain a platelet poor plasma (PPP).
(§3) The number of platelets in the PRP was measured using Coulter Counter manufactured by Coulter Electronics Inc. Then, the PRP was diluted with the PPP so that the number of platelets in the dilution became 300,000, whereby a PRP solution was prepared.
(§4) 200 μl of this PRP solution and 2 ml of a solution containing a test compound at a given concentration were placed in an aggregation measurement cell and heated at 37° C. for 1 minute. Thereto was added 20 μl of adenosine diphosphate (ADP manufactured by Sigma Co.) or a collagen suspension (Collagen Reagent manufactured by Horm, Hormon-Chemie, Gmbh) to induce aggregation of platelets. The resulting mixture in the cell was measured for change of transmittance, after which a platelets aggregation curve was prepared. Incidentaly, the concentration of ADP or collagen was selected so that the final Concentration became 7.5 μM or 20 μg/ml.
(§5) Using the platelets aggregation curve, there was calculated a maximum aggregation rate (MAR) of platelets using the followoing formula: […]
(§6) wherein a represents a transmittance of the PRP obtained in the same manner; c represents a transmittance of the PPP obtained in the same manner; and b represents a transmittance at the maximum change, of the PRP solution containng the test compound and the aggregation inducer.
(§7) A MAR was also calculated as above, for the control containing no test compound.
(§8) Using the above two MARs, there were calculated platelets aggregation inhibitions (%) of each test compound at various concentrations using the following formula.
(§9) Inhibition=[1-(MAR of PRP solution containing test compound)/(MAR of PRP
(§10) solution containing no test compound)]×100
(§11) Using the above obtained platelets aggregation inhibitions (%) of each test compound at various concentrations, there was calculated a concentration (IC50) of each test compound for 50% platelets aggregation inhibition.

[2] = test system: platelets; test: Platelets aggregation inhibitory activity (method of Born et al.), collagen-induced, human PRP (Pharmacological Test I); type: cell-based, man; settings: Homo sapiens, Platelet, 20 μg/ml collagen, 37° C., read-out: IC50 Collagen (50% platelets aggregation inhibition)
Protocol: as §1, §2, §3, §4, §5, §6, §7, §8, §9, §10, §11

Structure (SMILES)	IC50 ([1]; Homo sapiens, Platelet) [µM]	IC50 [2] [µM]	IC50 [1] [µM]
O=c1ccc2cc(OCCCS(=O)(=O)N(CCN3CCC(O)CC3)CC3CCCCO3)ccc2[nH]1 (stereo not drawn) [Example 84]	9.5	9.1	–
CCN(CC)CC(CO)N(CC1CCCCCCC1)S(=O)(=O)CCCCOc1ccc2[nH]c(=O)ccc2c1 (stereo not drawn) [Example 107]	3.4	3.2	–
O=c1ccc2cc(OCCCCN(CCN3CCC4(CC3)OCCO4)CC3CCCCCCC3)ccc2[nH]1 [Example 47]	25	29	–
CN(C1CCCCC1)S(=O)(=O)CCCCOc1ccc2[nH]c(=O)ccc2c1 [Example 77]	2.1	4.9	–
O=c1ccc2cc(OCCCCS(=O)(=O)N(CCNCCO)CC3CCCCCCC3)ccc2[nH]1 [Example 108]	2.9	2	–
CCN1C[C@H](O)C[C@H]1CN(CC1CCCCC1)S(=O)(=O)CCCCOc1ccc2[nH]c(=O)ccc2c1 [Example 106]	1.4	0.9	–
Cc1ccc(CN(CCCCCOc2ccc3[nH]c(=O)ccc3c2)CCN2CCC(O)CC2)cc1 [Example 32]	4.8	6.1	–
O=C(CN1CCC(O)CC1)N(CCCCOc1ccc2[nH]c(=O)ccc2c1)CC1CCCCCCC1 [Example 21]	4.2	3.1	–
CN(C)C1CCN(CCN(CC2CCCCCCC2)S(=O)(=O)CCCOc2ccc3[nH]c(=O)ccc3c2)CC1 [Example 100]	13	6.5	–
O=c1ccc2cc(OCCCS(=O)(=O)N(CCN3C[C@H](O)[C@@H](O)C3)CC3CCCCCCC3)ccc2[nH]1 [Example 102]	9.5	15	–
O=c1ccc2cc(OCCCS(=O)(=O)N(CCN3CCC[C@H]3CO)CC3CCCCCCC3)ccc2[nH]1 [Example 103]	2.6	3.2	–
O=c1ccc2cc(OCCCCCN(CCn3ccnc3)Cc3ccccc3)ccc2[nH]1 [Example 69]	15	9.5	–
O=c1ccc2cc(OCCCS(=O)(=O)N(CCN3CCCCC3)CC3CCCCCCC3)ccc2[nH]1 [Example 97]	14	18	–
O=c1ccc2cc(OCCCCCN(CCN3CCCS3(=O)=O)Cc3ccccc3)ccc2[nH]1 [Example 56]	14	7.7	–
CC(=O)NCCN(CC1CCCCCCC1)S(=O)(=O)CCCCOc1ccc2[nH]c(=O)ccc2c1 [Example 112]	0.83	0.69	–
O=c1ccc2cc(OCCCCCN(CCN3CCC(O)CC3)Cc3ccccc3)ccc2[nH]1 [Example 29]	12	6.3	–
O=C(CN(CC1CCCCCCC1)S(=O)(=O)CCCOc1ccc2[nH]c(=O)ccc2c1)N1CCC(O)CC1 [Example 81]	6.1	11	–
N#Cc1ccc(CN(CCCCCOc2ccc3[nH]c(=O)ccc3c2)CCN2CCC(O)CC2)cc1 [Example 33]	5.6	9.1	–
O=c1ccc2cc(OCCCCN(CCN3CCOCC3)CC3CCCCCCC3)ccc2[nH]1 [Example 45]	22	25	–
O=c1ccc2cc(OCCCCS(=O)(=O)N(CCN3CCC(O)CC3)Cc3ccc(Cl)c(Cl)c3)ccc2[nH]1 [Example 95]	10	7.1	–
O=c1ccc2cc(OCCCCN(CCN3CCC(O)CC3)C3CCCCC3)ccc2[nH]1 [Example 26]	15	14	–
CC(=O)NCCN(CC1CCCCCCC1)S(=O)(=O)CCCOc1ccc2[nH]c(=O)ccc2c1 [Example 111]	2.2	2.9	–
O=c1ccc2cc(OCCCCS(=O)(=O)N(CCN3CCCS3(=O)=O)Cc3ccccc3)ccc2[nH]1 [Example 105]	2.2	1.1	–
O=c1ccc2cc(OCCCCCN(CCN3CCN(CCO)CC3)Cc3ccccc3)ccc2[nH]1 [Example 57]	18	17	–

Structure (SMILES)	IC50 ([1]; Homo sapiens, Platelet) [µM]	IC50 [2] [µM]	IC50 [1] [µM]
O=c1ccc2cc(OCCCS(=O)(=O)N(CCN3CCC(O)CC3)CC3CCCCCCC3)ccc2[nH]1 [Example 78]	1.4	0.38	–
O=C([C@@H]1C[C@@H](O)CN1CCCCOc1ccc2[nH]c(=O)ccc2c1)N1CCCCC1 [Example 74]	17	20	–
COc1ccc(CN(CCN2CCC(O)CC2)S(=O)(=O)CCCCOc2ccc3[nH]c(=O)ccc3c2)cc1OC [Example 96]	8.7	6.5	–
O=C(C1CCCCCCC1)N(CCCCOc1ccc2[nH]c(=O)ccc2c1)CCN1CCC(O)CC1 [Example 41]	8.7	11	–
Cc1ccc(CN(CCN2CCC(O)CC2)S(=O)(=O)CCCCOc2ccc3[nH]c(=O)ccc3c2)cc1 [Example 94]	1.4	2.3	–
O=c1ccc2cc(OCCCCS(=O)(=O)N(CCN3CCC[C@H]3CO)CC3CCCCC3)ccc2[nH]1 [Example 104]	3.5	2.3	–
O=S(=O)(CCCOc1ccc2[nH]c(=S)ccc2c1)N(CCN1CCC(O)CC1)c1ccccc1 [Example 87]	4.7	–	–
CCN(CC)C(=O)CN(CCCCOc1ccc2[nH]c(=O)ccc2c1)CC1CCCCCCC1 [Example 65]	11	14	–
CCOC(=O)CN(CC1CCCCCCC1)S(=O)(=O)CCCOc1ccc2[nH]c(=O)ccc2c1 [Example 114]	6.5	4	–
O=c1ccc2cc(OCCCCCN(CCO)Cc3ccccc3)ccc2[nH]1 [Example 67]	4.5	2.9	–
CN(C(=O)NCCCOc1ccc2[nH]c(=O)ccc2c1)C1CCCCC1 [Example 133]	2.9	–	–
O=c1ccc2cc(OCCCCN(CCN3CCC(O)CC3)CC3CCCCO3)ccc2[nH]1 (stereo not drawn) [Example 24]	14	14	–
O=c1ccc2cc(OCCCCN(CCNCCO)CC3CCCCCCC3)ccc2[nH]1 [Example 60]	15	5.3	–
O=c1ccc2cc(OCCCS(=O)(=O)N(CCN3CCN(CCO)CC3)CC3CCCCCCC3)ccc2[nH]1 [Example 99]	2.9	3.5	–
O=C1CC[C@@H](CO)N1CCN(CCCCCOc1ccc2[nH]c(=O)ccc2c1)Cc1ccccc1 [Example 55]	3.7	2.6	–
O=C(c1ccccc1)N(CCCCOc1ccc2[nH]c(=O)ccc2c1)CCN1CCC(O)CC1 [Example 42]	20	13	–
O=c1ccc2cc(OCCCS(=O)(=O)N(CCN3CCC(O)CC3)CC3CCCCC3)ccc2[nH]1 [Example 82]	4.5	3.8	–
O=c1ccc2cc(OCCCCCN(CCN3CCC(O)CC3)Cc3cccs3)ccc2[nH]1 [Example 40]	13	10	–
O=c1ccc2cc(OCCCCN(Cc3ccccc3)S(=O)(=O)CCCn3ccnc3)ccc2[nH]1 [Example 122]	22	29	–
O=c1ccc2cc(OCCCCN(Cc3ccccc3)S(=O)(=O)CCCN3CCC[C@H]3CO)ccc2[nH]1 [Example 126]	10	15	–
O=c1ccc2cc(OCCCCS(=O)(=O)N(CCN3CCC(O)CC3)Cc3cccs3)ccc2[nH]1 [Example 90]	5.3	5.4	–
O=c1ccc2cc(OCCCNC(=S)N(CCN3CCC(O)CC3)CC3CCCCCCC3)ccc2[nH]1 [Example 132]	2.4	1.8	–
O=c1ccc2cc(OCCCCS(=O)(=O)N(CCN3CCC(O)CC3)C3CCCCCCC3)ccc2[nH]1 [Example 88]	2.8	1.4	–
CN(C(=S)CCCOc1ccc2[nH]c(=O)ccc2c1)C1CCCCC1 [Example 135]	–	–	22
